The test deals with T1, AAK1 (Homo sapiens, UniProt Q2M2I8).
T1 construct: HA; expressed in transfected cells; host or cells: HEK293F
The test is described as follows: HEK281 cell-based assay (phospho-mu2 Western blot in transfected HEK293F cells). The conditions noted are these: 3 hours incubation, read-out: CBA IC50. The protocol: HEK293F cells were cultured in media containing DMEM (Gibco, cat. #11965), 10% FBS (SAFC Biosciences, cat. #12103C), 1×GPS (glutamine, penicillin and streptomycin). On day one, cells were plated on a 10 cm dish so that they are ˜80% confluent at time of transfection. Roughly 12 million cells were in a 10 cm dish at time of transfection. On day two, each dish was transfected with 48 ug DNA and 144 ul Lipofectamine 2000 (Invitrogen, cat.#11668-019). The DNA was comprised of a mixture (per 10 cm dish) containing 3 ug AAK1/HA/pIRES (full length human, NCBI accession no. NP_055726.2), 45 μg Flag/AP2MI/pcDNA (full length human), and 1.5 ml OPTI-MEM. The Lipofectamine 2000 is made up of a mixture (per 10 cm dish) containing 144 μl Lipofectamine 2000 and 1.5 ml OPTI-MEM. Each mixture was transferred to individual 15 ml tubes and incubated at RT for 5 minutes, and then the two mixes were combined and incubated at RT for 20 minutes. Growth media was then aspirated from each 10 cm plate and replaced with 10 ml of DMEM+10% FBS (no GPS). Finally, 3 ml DNA/Lipofectamine mix was added to each 10 cm dish and mix gently followed by incubate of plate overnight at 37° C. and 5% CO2.
On day three, compounds were diluted in 100% DMSO at 1000× final concentration, followed by 3-fold serial dilutions for a total of 5 concentrations tested. Four compounds were tested per 10 cm dish. One ul of each compound dilution was then pipetted into a deep-well, 96-well plate, followed by addition of 500 μl DMEM+0.5% FBS into each well for a 2× final concentration of each compound. Cells were resuspended in a 10 cm dish by simple pipetting (HEK293 cells come off the plate that easy at this point) and then transferred to a 50 ml conical tube and pelleted by centrifugation at 1000 rpm for 5 min. Cell pellets were then resuspended in 2.75 ml DMEM+0.5% FBS per 10 cm dish and 100 μl of cell suspension transferred into each well of 96-well TC plate. Finally, 100 μl of 2× compound diluted in DMEM+0.5% FBS was then added into wells containing cell suspension for a 1× final concentration. Plates were then incubated at 37° C. and 5% CO2 for 3 hours followed by transferring of cell suspensions from each well into 12-tube PCR strips. The PCR strips were spun in a tip rack at 1000 rpm for 5 minutes to pellet cells and media was then removed by pipetting without disturbing the cell pellet.
To prepare for Western Blot analysis, cell pellets were resuspend in 40 ul 1×LDS-PAGE sample buffer (Invitrogen, cat.#NP0008)+2× Halt phophatase and protease inhibitor cocktail (Thermo Scientific, cat.#1861284), followed by sonicating each with microtip sonicator set at 5 for 8-10 seconds. Five ul of 10× NuPage Sample Reducing Agent (with 50 mM DTT) was to each sample followed by heat denaturing at 70 C for 10 min on PCR machine. A total of 10 μl per sample was loaded into each lane of a 4-20% Tris-Glycine Criterion 26-well gel (Biorad, cat.#345-0034) for the phospho-mu2 blot and 10 μl per lane in a 4-12% Bis-Tris (+MES buffer) NuPAGE 26-well gel (Invitrogen, cat.#WG1403BX10) for the mu2 blot. For controls, 2 ng of phospho-mu2 or 20 ng mu2/Flag proteins were loaded in the last well of each gel. After SDS-PAGE, samples on each gel were transferred to PVDF membrane using an iBlot and membranes were blocked for one hour in TBST+5% milk, followed by wash 3× for 5-10 min with TBST. Criterion gels were probed with rabbit anti-phospho-mu2 (1:5000; a rabbit polyclonal antibody produced by New England Peptide and affinity purified at Lexicon) in TBST+5% BSA, whereas, NuPAGE gels were probed with mouse anti-Flag (1:500; Sigma, cat.#F1804) in TBST+5% milk, and these primary antibodies were incubated overnight at 4° C. on a rocker.

Here are results for 33 compounds from patent US8969565B2, “Imidazo[1,2-b]pyridazine-based compounds, compositions comprising them, and methods of their use” (Lexicon Pharmaceuticals, Inc., priority 2012, dated 2015).

Each structure is given as a SMILES string.

T1 sequence (Q2M2I8 1-863 isoform Q2M2I8-2): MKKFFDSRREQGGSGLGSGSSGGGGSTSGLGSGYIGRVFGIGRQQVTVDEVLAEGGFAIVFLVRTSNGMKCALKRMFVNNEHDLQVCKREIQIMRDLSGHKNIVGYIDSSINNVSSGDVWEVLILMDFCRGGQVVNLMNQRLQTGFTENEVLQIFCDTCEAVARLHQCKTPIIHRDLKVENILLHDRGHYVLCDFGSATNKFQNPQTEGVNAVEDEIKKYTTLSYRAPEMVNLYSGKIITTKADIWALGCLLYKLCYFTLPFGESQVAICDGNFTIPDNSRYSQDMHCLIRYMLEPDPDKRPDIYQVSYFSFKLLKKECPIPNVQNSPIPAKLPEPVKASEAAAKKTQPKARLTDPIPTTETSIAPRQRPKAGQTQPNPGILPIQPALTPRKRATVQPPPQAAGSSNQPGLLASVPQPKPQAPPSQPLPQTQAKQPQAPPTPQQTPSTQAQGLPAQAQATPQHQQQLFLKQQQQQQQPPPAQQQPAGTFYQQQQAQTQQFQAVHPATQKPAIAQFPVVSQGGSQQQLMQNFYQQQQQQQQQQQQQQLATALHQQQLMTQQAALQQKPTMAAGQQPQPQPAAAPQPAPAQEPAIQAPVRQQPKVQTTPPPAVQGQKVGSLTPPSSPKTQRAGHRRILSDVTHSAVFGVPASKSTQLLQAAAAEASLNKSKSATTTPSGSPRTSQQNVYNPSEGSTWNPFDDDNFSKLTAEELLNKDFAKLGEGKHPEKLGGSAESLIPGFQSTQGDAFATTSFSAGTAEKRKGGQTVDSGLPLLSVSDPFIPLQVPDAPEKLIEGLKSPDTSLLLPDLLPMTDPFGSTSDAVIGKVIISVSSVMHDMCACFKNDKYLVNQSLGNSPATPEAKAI

In general, IC50 refers to the concentration that gives 50% inhibition. With `CC(C)(C)N1CCN(CCNc2ccc3ncc(-c4ccc(CN)cc4)n3n2)C1=O` [1-(2-((3-(4-(aminomethyl)phenyl)imidazo[1,2-b]pyridazin-6-yl)amino)ethyl)-3-(tert-butyl)imidazolidin-2-one], the half-maximal inhibitory concentration (IC50) is no more than 100 nM.
To `COc1cnccc1-c1cnc2ccc(N3CCN(C(=O)CC(C)(C)C)CC3)nn12` [1-(4-(3-(3-methoxypyridin-4-yl)imidazo[1,2-b]pyridazin-6-yl)piperazin-1-yl)-3,3-dimethylbutan-1-one] belongs no more than 100 nM; to `CC(=O)c1ccc(-c2cnc3ccc(NCCN(C)c4ccccc4)nn23)s1` [1-(5-(6-((2-(methyl(phenyl)amino)ethyl)amino)imidazo[1,2-b]pyridazin-3-yl)thiophen-2-yl)ethanone], no more than 100 nM.
To `CNCCCNc1ccc2ncc(-c3ccc(C(C)=O)s3)n2n1` [1-(5-(6-((3-(methylamino)propyl)amino)imidazo[1,2-b]pyridazin-3-yl)thiophen-2-yl)ethanone] belongs no more than 1000 nM; to `COCCCNc1ccc2ncc(-c3ccc(C(C)=O)s3)n2n1` [1-(5-(6-((3-methoxypropyl)amino)imidazo[1,2-b]pyridazin-3-yl)thiophen-2-yl)ethanone], no more than 1000 nM.
To `CCCCN(C)c1ccc2ncc(-c3ccc(C(C)=O)s3)n2n1` [1-(5-(6-(butyl(methyl)amino)imidazo[1,2-b]pyridazin-3-yl)thiophen-2-yl)ethanone] belongs no more than 100 nM.
For the compound `CC(=O)c1ccc(-c2cnc3ccc(NCC(C)C)nn23)s1` [1-(5-(6-(isobutylamino)imidazo[1,2-b]pyridazin-3-yl)thiophen-2-yl)ethanone], the IC50 was no more than 1000 nM.
Then `CCCNc1ccc2ncc(-c3ccc(C(C)=O)s3)n2n1` [1-(5-(6-(propylamino)imidazo[1,2-b]pyridazin-3-yl)thiophen-2-yl)ethanone], with no more than 1000 nM.
For the compound `COc1cnccc1-c1cnc2ccc(NCCN3CCN(C(C)(C)C)C3=O)nn12` [1-(tert-butyl)-3-(2-((3-(3-methoxypyridin-4-yl)imidazo[1,2-b]pyridazin-6-yl)amino)ethyl)imidazolidin-2-one], the IC50 is no more than 100 nM.
Then `COc1cnccc1-c1cnc2ccc(NCCN(C(=O)OCCF)C(C)C)nn12` [2-fluoroethyl isopropyl(2-((3-(3-methoxypyridin-4-yl)imidazo[1,2-b]pyridazin-6-yl)amino)ethyl)carbamate], with no more than 1000 nM.
To `Cc1nc(C)c(-c2cnc3ccc(NCCOCC(C)C)nn23)s1` [3-(2,4-dimethylthiazol-5-yl)-N-(2-isobutoxyethyl)imidazo[1,2-b]pyridazin-6-amine] belongs no more than 1000 nM.
On to `CC(C)(C)OCCCNc1ccc2ncc(-c3ccnc(N)c3)n2n1` [3-(2-aminopyridin-4-yl)-N-(3-(tert-butoxy)propyl)imidazo[1,2-b]pyridazin-6-amine], for which the IC50 was no more than 1000 nM.
Then `CCCCNc1ccc2ncc(-c3ccnc(N)c3)n2n1` [3-(2-aminopyridin-4-yl)-N-butylimidazo[1,2-b]pyridazin-6-amine], with no more than 1000 nM; and `COc1ncccc1-c1cnc2ccc(NCC3CCOC3)nn12` (stereo not drawn) [3-(2-methoxypyridin-3-yl)-N-((tetrahydrofuran-3-yl)methyl)imidazo[1,2-b]pyridazin-6-amine], with no more than 1000 nM.
Then `COc1cnccc1-c1cnc2ccc(NCCCC(F)(F)F)nn12` [3-(3-methoxypyridin-4-yl)-N-(4,4,4-trifluorobutyl)imidazo[1,2-b]pyridazin-6-amine], with no more than 10 nM; and `CCCCNc1ccc2ncc(-c3ccc(OCCN)cc3)n2n1` [3-(4-(2-aminoethoxy)phenyl)-N-butylimidazo[1,2-b]pyridazin-6-amine], with no more than 100 nM; and `CC(C)(C)CCNc1ccc2ncc(-c3ccc(OCCCN)cc3)n2n1` [3-(4-(3-aminopropoxy)phenyl)-N-(3,3-dimethylbutyl)imidazo[1,2-b]pyridazin-6-amine], with no more than 100 nM.
To `NCCCOc1ccc(-c2cnc3ccc(NCCCc4ccccc4)nn23)cc1` [3-(4-(3-aminopropoxy)phenyl)-N-(3-phenylpropyl)imidazo[1,2-b]pyridazin-6-amine] belongs no more than 100 nM.
Take `CC(C)(C)CCNc1ccc2ncc(-c3ccc(COCCN)cc3)n2n1` [3-(4-((2-aminoethoxy)methyl)phenyl)-N-(3,3-dimethylbutyl)imidazo[1,2-b]pyridazin-6-amine]: the IC50 was no more than 100 nM.
Then `CCCCCNc1ccc2ncc(-c3ccc(CNCCOC)cc3)n2n1` [3-(4-(((2-methoxyethyl)amino)methyl)phenyl)-N-pentylimidazo[1,2-b]pyridazin-6-amine], with no more than 1000 nM.
To `CCCCNc1ccc2ncc(-c3ccc(CN)cc3)n2n1` [3-(4-(Aminomethyl)phenyl)-N-butylimidazo[1,2-b]pyridazin-6-amine] belongs no more than 1000 nM; to `NCc1ccc(-c2cnc3ccc(NC4COC5(CCCC5)C4)nn23)cc1` (stereo not drawn) [3-(4-(aminomethyl)phenyl)-N-(1-oxaspiro[4.4]nonan-3-yl)imidazo[1,2-b]pyridazin-6-amine], no more than 100 nM; to `NCc1ccc(-c2cnc3ccc(NCCOC4CCCC4)nn23)cc1` [3-(4-(aminomethyl)phenyl)-N-(2-(cyclopentyloxy)ethyl)imidazo[1,2-b]pyridazin-6-amine], no more than 100 nM.
For the compound `CC(C)(C)COCCNc1ccc2ncc(-c3ccc(CN)cc3)n2n1` [3-(4-(aminomethyl)phenyl)-N-(2-(neopentyloxy)ethyl)imidazo[1,2-b]pyridazin-6-amine], the half-inhibitory concentration (IC50) is no more than 100 nM.
With `CC(C)(C)OCCNc1ccc2ncc(-c3ccc(CN)cc3)n2n1` [3-(4-(aminomethyl)phenyl)-N-(2-(tert-butoxy)ethyl)imidazo[1,2-b]pyridazin-6-amine], the IC50 was no more than 100 nM.
Then `NCc1ccc(-c2cnc3ccc(NCCc4ccccc4OC(F)(F)F)nn23)cc1` [3-(4-(aminomethyl)phenyl)-N-(2-(trifluoromethoxy)phenethyl)imidazo[1,2-b]pyridazin-6-amine], with no more than 10 nM; and `NCc1ccc(-c2cnc3ccc(NCCC4CCCCC4)nn23)cc1` [3-(4-(aminomethyl)phenyl)-N-(2-cyclohexylethyl)imidazo[1,2-b]pyridazin-6-amine], with no more than 100 nM; and `NCc1ccc(-c2cnc3ccc(NCCC4CC4)nn23)cc1` [3-(4-(aminomethyl)phenyl)-N-(2-cyclopropylethyl)imidazo[1,2-b]pyridazin-6-amine], with no more than 1000 nM.
To `CCOc1ccccc1CCNc1ccc2ncc(-c3ccc(CN)cc3)n2n1` [3-(4-(aminomethyl)phenyl)-N-(2-ethoxyphenethyl)imidazo[1,2-b]pyridazin-6-amine] belongs no more than 100 nM; to `NCc1ccc(-c2cnc3ccc(NCCc4ccccc4F)nn23)cc1` [3-(4-(aminomethyl)phenyl)-N-(2-fluorophenethyl)imidazo[1,2-b]pyridazin-6-amine], no more than 100 nM; to `CC(C)COCCNc1ccc2ncc(-c3ccc(CN)cc3)n2n1` [3-(4-(aminomethyl)phenyl)-N-(2-isobutoxyethyl)imidazo[1,2-b]pyridazin-6-amine], no more than 100 nM.
Then `CC(C)OCCNc1ccc2ncc(-c3ccc(CN)cc3)n2n1` [3-(4-(aminomethyl)phenyl)-N-(2-isopropoxyethyl)imidazo[1,2-b]pyridazin-6-amine], with no more than 100 nM.
With `COc1ccccc1CCNc1ccc2ncc(-c3ccc(CN)cc3)n2n1` [3-(4-(aminomethyl)phenyl)-N-(2-methoxyphenethyl)imidazo[1,2-b]pyridazin-6-amine], the IC50 is no more than 10 nM.
